According to ChEMBL document CHEMBL2203178, “Design and one-pot synthesis of new 7-acyl camptothecin derivatives as potent cytotoxic agents” (Bioorg Med Chem Lett, 2012):

Key:
Assay type in all cases: functional, cell-based
[1] = Cytotoxicity against human KBVIN cells by SRB assay
DU-145 = assay: Cytotoxicity against human DU145 cells by SRB assay
KB = assay: Cytotoxicity against human KB cells by SRB assay
A549 = assay: Cytotoxicity against human A549 cells by SRB assay

| Structure (SMILES) | IC50 [1] [µM] | IC50 (DU-145) [µM] | IC50 (KB) [µM] | IC50 (A549) [µM] |
| --- | --- | --- | --- | --- |
| CC[C@@]1(O)C(=O)OCc2c1cc1n(c2=O)Cc2c-1nc1ccccc1c2C(=O)c1cc(OC)c(OC)c(OC)c1 | 1.17 | 2.11 | 3.14 | 1 |
| CC[C@@]1(O)C(=O)OCc2c1cc1n(c2=O)Cc2c-1nc1ccccc1c2C(=O)c1cc(OC)ccc1OC | 2.25 | 2.06 | 2.92 | 1.01 |
| CC[C@@]1(O)C(=O)OCc2c1cc1n(c2=O)Cc2c-1nc1ccccc1c2C(=O)c1ccc(C)c(O)c1 | 1.14 | 1.54 | 1.73 | 1.02 |
| CC[C@@]1(O)C(=O)OCc2c1cc1n(c2=O)Cc2c-1nc1ccccc1c2C(=O)c1ccc(C)c(C)c1 | 4.62 | 1.7 | 2.49 | 1 |
| CC[C@@]1(O)C(=O)OCc2c1cc1n(c2=O)Cc2c-1nc1ccccc1c2C(=O)c1ccc(O)cc1 | 1.79 | 2.99 | 12.5 | 2.51 |
| CC[C@@]1(O)C(=O)OCc2c1cc1n(c2=O)Cc2c-1nc1ccccc1c2C(=O)c1ccc2c(c1)OCO2 | 1.77 | 2.6 | 11.8 | 1.13 |
| CC[C@@]1(O)C(=O)OCc2c1cc1n(c2=O)Cc2c-1nc1ccccc1c2C(=O)c1ccc(OC)cc1 | 3.14 | 1.61 | 4.78 | 0.911 |
| CC[C@@]1(O)C(=O)OCc2c1cc1n(c2=O)Cc2c-1nc1ccccc1c2C(=O)c1ccc(Cl)cc1 | 1.12 | 1.68 | 3.07 | 0.949 |
| CC[C@@]1(O)C(=O)OCc2c1cc1n(c2=O)Cc2c-1nc1ccccc1c2C(=O)c1ccccc1 | 11.9 | 11 | 13.3 | 11 |
| CC[C@@]1(O)C(=O)OCc2c1cc1n(c2=O)Cc2c-1nc1ccccc1c2C(=O)c1ccoc1 | 1.8 | 2.01 | 2.73 | 2.02 |
| CCC(=O)c1c2c(nc3ccccc13)-c1cc3c(c(=O)n1C2)COC(=O)[C@]3(O)CC | 0.0287 | 0.0898 | 0.0592 | 0.0317 |
| CC[C@@]1(O)C(=O)OCc2c1cc1n(c2=O)Cc2c-1nc1ccccc1c2C(C)=O | 0.131 | 0.0402 | 0.0233 | 0.0154 |
| CC[C@@]1(O)C(=O)OCc2c1cc1n(c2=O)Cc2cc3ccccc3nc2-1 [CAMPTOTHECIN] | – | 0.0287 | – | – |
| CCc1c2c(nc3ccc(OC(=O)N4CCC(N5CCCCC5)CC4)cc13)-c1cc3c(c(=O)n1C2)COC(=O)[C@]3(O)CC [IRINOTECAN] | > 20 | 9.3 | – | – |
